Data taken from article PMC12486159 (American journal of physiology. Renal physiology, 2025).

Biological target: human FATP2 (Homo sapiens, UniProt O14975)
Assay: BODIPY-FA uptake in FATP2-overexpressing HPCT cells, fluorescence plate reader
Type: cell-based

Chain of human FATP2 (O14975 whole entry): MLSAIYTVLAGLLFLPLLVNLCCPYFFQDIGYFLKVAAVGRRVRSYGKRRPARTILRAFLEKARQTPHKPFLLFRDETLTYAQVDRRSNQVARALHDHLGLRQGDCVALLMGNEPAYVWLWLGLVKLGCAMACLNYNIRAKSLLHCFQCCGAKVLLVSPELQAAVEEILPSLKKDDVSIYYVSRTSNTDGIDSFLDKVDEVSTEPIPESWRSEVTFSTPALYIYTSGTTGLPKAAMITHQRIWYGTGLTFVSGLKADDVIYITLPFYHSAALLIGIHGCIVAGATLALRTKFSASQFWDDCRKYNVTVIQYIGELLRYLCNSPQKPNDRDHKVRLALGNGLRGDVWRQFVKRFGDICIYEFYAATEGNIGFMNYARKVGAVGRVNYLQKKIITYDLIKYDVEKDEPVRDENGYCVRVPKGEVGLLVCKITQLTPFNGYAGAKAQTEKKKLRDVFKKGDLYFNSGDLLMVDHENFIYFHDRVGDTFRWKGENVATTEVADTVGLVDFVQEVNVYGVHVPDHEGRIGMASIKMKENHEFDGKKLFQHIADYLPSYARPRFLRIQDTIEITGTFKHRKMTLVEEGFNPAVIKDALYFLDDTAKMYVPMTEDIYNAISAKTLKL

O=C1Nc2ccc(Br)cc2C12NN=C(c1ccccc1)S2 (stereo not shown) [Lipofermata]
IC50: 5 µM
